In experiment [1] the target is T1, murine Syk tyrosine kinase protein (GST:Syk 6-242) (Mus musculus, UniProt P48025).
T1 construct: made in house
Briefly: ADA method: displacement of the binding of scFv G4G11 with Syk (ELISA). To be noted: small molecules at 10 μM, scFv G4G11 100 nM; for inhibition at 10 µM: read-out: In vit. inhib.: mean inhibition % of the binding of scFv G4G11 with Syk in the ADA method. From the text: The term “percentage of inhibition” of the binding of an antibody or antibody fragment with Syk protein, particularly refers to the ratio […], where A consists of the intensity of a signal proportional to the quantity of an antibody or antibody fragment bound with Syk protein in the absence of a molecule according to the invention and B the intensity of the same signal in the presence of a molecule according to the invention under the same conditions. […] This test may be performed for example according to the protocol described in example 3-2) hereinafter.
The inventors developed the ADA (Antigen Displacement Assay) method to identify small molecules capable of displacing the association with scFv G4G11 with Syk. […] To understand the mode of action of C-13, the inventors firstly identified the binding site of G4G11 using the SPOT method^16. An epitope located on the N-terminal SH2 domain of Syk, comprising amino acids 65-74 and 100% preserved in mouse, rat and human sequences, was identified.
The ADA method was then applied to each of these […] molecules to measure the ability thereof to inhibit the binding of scFv G4G11 with Syk.
(§1) • 1) Chemical products and antibodies. A chemical bank of 3000 molecules (a varied subset) was acquired from ChemBridge, Inc. (San Diego, Calif.). Stocks of solutions of small molecules were prepared at a rate of 10 mM in DMSO (dimethylsulphoxide), except for C-13 (methyl 2-{5-[(3-benzyl-4-oxo-2-thioxo-1,3-thiazolidin-5-ylidene)methyl]-2-furyl}benzoate, ChemBridge ID No. 6197026) prepared in DMF (dimethylformamide). Unless specified otherwise, all the reagents were supplied by Sigma. Dinitrophenyl (DNP) hapten was acquired from Calbiochem. Sepharose GammaBind G and all the secondary antibodies were supplied by GE Health Amersham Biosciences. The anti-Syk, anti-Lyn, anti-Btk, anti-PLC-γ1, anti-PLC-γ2, anti-LAT, anti-SLP-76, anti-p38, anti-JNK, anti-Vav, anti-Akt1 and 9E10 antibodies conjugated with HRP were acquired from Santa Cruz Biotechnology. The anti-phospho-p44/42 MAP Kinase, anti-p44/42 MAP Kinase, anti-phospho-p38, anti-phospho-JNK, anti-phospho-Akt1 antibodies were acquired from Cell Signaling. The anti-phospho-LAT and anti-phospho-PLC-γ1 antibodies were supplied by Biosource and the anti-phospho-SLP-76 antibodies by BD Pharmingen. The 4G10 anti-phosphotyrosine monoclonal antibody was acquired from Upstate Biotechnology. • 2) ADA method: ELISA type high-speed molecule screening test, based on antibody displacement (WO 2005106481). The recombinant fusion protein GST:Syk 6-242^8 comprising the residues 6 to 242 of murine Syk tyrosine kinase protein illustrated in FIG. 8B (SEQ ID No. 4) was immobilised on an ELISA plate at a final concentration of 10 μg ml^−1. For the screening of the chemical molecule bank, the small molecules, diluted in PBS at a final concentration of 10 μM were added to the wells for one hour at ambient temperature, before adding the fragment scFv G4G11 at a final concentration of 100 nM for an additional hour. The binding of G4G11 with Syk was assessed by adding the 9E10 monoclonal antibody conjugated with HRP detecting the amino acid sequence EQKLISEEDLN of human c-myc protein located at the C-terminal end of the scFv fragment. To generate Syk mutants, targeted mutagenesis was used on GST:Syk 6-242 protein and the binding of G4G11 with the mutants was assessed in the presence of 5 μM of C-13. • 3) Cells, culture conditions and functional tests. Anti-DNP 2682-I mouse monoclonal antibody was used as the culture supernatant of hybridomas containing 1 μg/ml of IgE. Femoral bone marrow cells were sampled and cultured in Opti-MEM medium (Gibco) supplemented with 10% foetal calf serum and 4% X63 transfectant supernatant secreting murine IL-3. RBL-2H3 (ATCC) leukaemic rat basophil cells were maintained in a single-layer culture in RPMI 1640 medium supplemented with 10% foetal calf serum (Gibco). […]

For another experiment, the system named is RBL-2H3 cells. In words: cells. The experiment is classed as cell-based, rat. The following applies: RBL-2H3 cells; for IC50: Rattus norvegicus, read-out: Degran. IC50: concentration inhibiting mast cell degranulation by 50%. As for the experimental part: These 87 molecules were also tested in vitro to assess the ability thereof to inhibit RBL-2H3 cell degranulation (see table 1).
as §1, with “(Gibco). Measurements of β-hexosaminidase released by the RBL-2H3 cells were performed as described previously^7, except that, after 12-16 hours of incubation with anti-DNP IgE (0.5 μg/ml), the cells were incubated for 90 min at 37° C. in RPMI medium supplemented with the specified concentrations of C-13 or DMF (0.25%). The cells were stimulated for 45 min with DNP-BSA (50 ng ml^−1) or ionomycin (1.5 μM). The BMMC cells were incubated for one hour at 37° C. with anti-DNP IgE (100 ng/ml). They were then incubated with C-13 (3 μM) or DMF (0.3%) for 3 hours at 37° C., and stimulated with varied concentrations of DNP-BSA. The level of β-hexosaminidase released was measured 10 min later and the TNF-α titration was performed by means of a cytotoxicity test on L929 cells as described previously^10, 3 hours after stimulation. The results illustrated in FIG. 3 are representative of three independent experiments. • 4) Immunoprecipitations, in vitro kinase assays and immunodetection.” for “(Gibco).”

Broadly, the inhibition is the drop in the measured response relative to a control, in per cent. As to `COc1cc(C2C(C(=O)c3ccc(Cl)cc3)=C(O)C(=O)N2CCCN2CCOCC2)cc(OC)c1OC` (stereo not shown) [Molecule 25, 4-(4-chlorobenzoyl)-3-hydroxy-1-[3-(4-morpholinyl)propyl]-5-(3,4,5-trimethoxyphenyl)-1,5-dihydro-2H-pyrrol-2-one], the inhibition at 10 µM in experiment [1] is 56.5%. The IC50 with RBL-2H3 cells was above 10 µg/mL.

Consider `CC(C)c1ccc(C2C(C(=O)c3ccccc3)=C(O)C(=O)N2CCN2CCOCC2)cc1` (stereo not shown) [Molecule 26], for which the inhibition at 10 µM in experiment [1] was found to be 56.5%. The IC50 in the experiment on RBL-2H3 cells is above 10 µg/mL.

Turning to `COc1ccc(C2C(C(=O)c3ccc(Cl)cc3)=C(O)C(=O)N2CCN2CCOCC2)cc1OC` (stereo not shown) [Molecule 27, 4-(4-chlorobenzoyl)-5-(3,4-dimethoxyphenyl)-3-hydroxy-1-[2-(4-morpholinyl)ethyl]-1,5-dihydro-2H-pyrrol-2-one], the inhibition at 10 µM in experiment [1] came out at 55%. Moreover, in the experiment on RBL-2H3 cells, the IC50 is above 10 µg/mL.

On to `CCN(CC)CCN1C(=O)C(O)=C(C(=O)c2ccc(C)cc2)C1c1cc(OC)ccc1OC` (stereo not shown) [Molecule 28, 1-[2-(diethylamino)ethyl]-5-(2,5-dimethoxyphenyl)-3-hydroxy-4-(4-methylbenzoyl)-1,5-dihydro-2H-pyrrol-2-one], for which, in experiment [1], the inhibition at 10 µM came to 54%. The IC50 with RBL-2H3 cells is above 10 µg/mL.

For the compound `O=C(CCCN1C(=O)c2ccccc2C1=O)Nc1sc2c(c1C(=O)NCC1CCCO1)CCC2` (stereo not shown) [Molecule 30], the inhibition at 10 µM in experiment [1] came out at 51%. The IC50 with RBL-2H3 cells is above 10 µg/mL.

Take `COc1ccc(C2C(C(=O)c3ccc(F)cc3)=C(O)C(=O)N2CCN2CCOCC2)cc1OC` (stereo not shown) [Molecule 31, 5-(3,4-dimethoxyphenyl)-4-(4-fluorobenzoyl)-3-hydroxy-1-(2-(4-morpholinyl)ethyl]-1,5-dihydro-2H-pyrrol-2-one]: the inhibition at 10 µM in experiment [1] came out at 50%. The IC50 in the experiment with RBL-2H3 cells is above 10 µg/mL.

For `CN(C)S(=O)(=O)c1ccc(C(=O)C2=C(O)C(=O)N(CCN3CCOCC3)C2c2ccccc2)cc1` (stereo not shown) [Molecule 32, 4-({4-hydroxy-1-[2-(4-morpholinyl)ethyl]-5-oxo-2-phenyl-2,5-dihydro-1H-pyrrol-3-yl}carbonyl)-N,N-dimethylbenzenesulphonamide], the inhibition at 10 µM in experiment [1] was 50%. Further, the IC50 in the experiment on RBL-2H3 cells was above 10 µg/mL.

As to `COc1ccc(C2C(C(=O)c3ccc(F)cc3)=C(O)C(=O)N2CCN2CCOCC2)c(OC)c1` (stereo not shown) [Molecule 33], in experiment [1], the inhibition at 10 µM came out at 50%. Moreover, the IC50 in the experiment on RBL-2H3 cells is above 10 µg/mL.

As to `COc1ccc(C2C(C(=O)c3ccc(C)cc3)=C(O)C(=O)N2CCN2CCOCC2)c(OC)c1` (stereo not shown) [Molecule 34], the inhibition at 10 µM in experiment [1] was 50%. The IC50 with RBL-2H3 cells is above 10 µg/mL.

`COc1ccc(C2C(C(=O)c3ccco3)=C(O)C(=O)N2CCN2CCOCC2)cc1OC` (stereo not shown) [Molecule 35, 5-(3,4-dimethoxyphenyl)-4-(2-furoyl)-3-hydroxy-1-[2-(4-morpholinyl)ethyl]-1,5-dihydro-2H-pyrrol-2-one]: in experiment [1], the inhibition at 10 µM worked out at 50%. Further, the IC50 in the experiment on RBL-2H3 cells is above 10 µg/mL.

For the compound `COc1ccc(C2C(C(=O)c3ccc(Cl)cc3)=C(O)C(=O)N2CCN2CCOCC2)cc1OC` (stereo not shown) [Molecule 36, 4-(4-chlorobenzoyl)-5-(3,4-dimethoxyphenyl)-3-hydroxy-1-[2-(4-morpholinyl)ethyl]-1,5-dihydro-2H-pyrrol-2-one], the “In vit. inhib.: mean inhibition % of the binding of scFv G4G11 with Syk in the ADA method” value in experiment [1] was determined as 50%. Further, the “Degran. IC50: concentration inhibiting mast cell degranulation by 50%” value in the experiment on RBL-2H3 cells was above 10 µg/mL.

On to `CCOC(=O)c1sc(N2C(=O)C(O)=C(C(=O)c3ccccc3)C2c2ccc(OC)cc2)nc1C` (stereo not shown) [Molecule 37, ethyl 2-[3-benzoyl-4-hydroxy-2-(4-methoxyphenyl)-5-oxo-2,5-dihydro-1H-pyrrol-1-yl]-4-methyl-1,3-thiazole-5-carboxylate], for which, in experiment [1], the inhibition at 10 µM worked out at 50%. Moreover, the IC50 in the experiment with RBL-2H3 cells was above 10 µg/mL.

`COc1ccc(C2C(C(=O)c3cccs3)=C(O)C(=O)N2CCN2CCOCC2)cc1OC` (stereo not shown) [Molecule 38, 5-(3,4-dimethoxyphenyl)-3-hydroxy-1-[2-(4-morpholinyl)ethyl]-4-(2-thienylcarbonyl)-1,5-dihydro-2H-pyrrol-2-one]: the inhibition at 10 µM in experiment [1] amounted to 50%. For the same compound, in the experiment with RBL-2H3 cells, the IC50 was above 10 µg/mL.

`COc1ccc(C2C(C(=O)c3ccc(Cl)cc3)=C(O)C(=O)N2CCN2CCOCC2)cc1` (stereo not shown) [Molecule 39, 4-(4-chlorobenzoyl)-3-hydroxy-5-(4-methoxyphenyl)-1-[2-(4-morpholinyl)ethyl]-1,5-dihydro-2H-pyrrol-2-one]: the inhibition at 10 µM in experiment [1] turned out to be 50%. Also, the IC50 with RBL-2H3 cells is above 10 µg/mL.

For the origin of these results see US9504676B2, “Molecules inhibiting a metabolic pathway involving the Syk protein tyrosine kinase and method for identifying said molecules” (CENTRE NATIONAL DE LA RECHERCHE SCIENTIFIQUE, priority 2008, dated 2016).
